# Source: patent publication US20130209543A1, “ENHANCED TREATMENT REGIMENS USING MTOR INHIBITORS” (Intellikine LLC, priority 2011, published 2013)
# Assay: Phase I clinical trial: safety, related treatment-emergent adverse events, patients n (%)
# Type: in vivo
# Procedure: Safety, maximum tolerated dose (MTD), pharmacokinetics (PK) and preliminary antitumor activity were evaluated.
# Pharmacodynamic (PD) endpoints were evaluated in surrogate (peripheral blood cells [PBCs], skin) and tumor tissues for the phosphorylation of TORC1-dependent markers (4EBP1/S6), and TORC2-dependent markers (AKT/PRAS40).
smiles,measurement,setting,value
CC(C)n1nc(-c2ccc3oc(N)nc3c2)c2c(N)ncnc21 [compound A],Asthenia,"6 mg/3W, N = 3",0 (0%)
same,Asthenia (second line),"6 mg/3W, N = 3",0 (0%)
same,Catheter site inflammation,"6 mg/3W, N = 3",0 (0%)
same,Catheter site pain,"6 mg/3W, N = 3",0 (0%)
same,Decreased appetite,"6 mg/3W, N = 3",0 (0%)
same,Diarrhoea,"6 mg/3W, N = 3",0 (0%)
same,Dry skin,"6 mg/3W, N = 3",0 (0%)
same,Dysgeusia,"6 mg/3W, N = 3",0 (0%)
same,Dyspnoea,"6 mg/3W, N = 3",0 (0%)
same,Fatigue,"6 mg/3W, N = 3",0 (0%)
same,Headache,"6 mg/3W, N = 3",0 (0%)
same,Hypercholesterolaemia,"6 mg/3W, N = 3",0 (0%)
same,Hypertransaminasaemia,"6 mg/3W, N = 3",0 (0%)
same,Hypertriglyceridaemia,"6 mg/3W, N = 3",0 (0%)
same,Hypomagnesaemia,"6 mg/3W, N = 3",0 (0%)
same,Hypotension,"6 mg/3W, N = 3",0 (0%)
same,Low fever,"6 mg/3W, N = 3",0 (0%)
same,Lymphopenia,"6 mg/3W, N = 3",0 (0%)
same,Palmar-plantar erythrodysaesthesia syndrome,"6 mg/3W, N = 3",0 (0%)
same,Patients Reporting at Least One Related TEAE,"6 mg/3W, N = 3",3 (100%)
same,Pyrexia,"6 mg/3W, N = 3",0 (0%)
same,Rash macular,"6 mg/3W, N = 3",0 (0%)
same,Urinary tract infection,"6 mg/3W, N = 3",0 (0%)
same,Nausea,"7 mg/5W, N = 3",0 (0%)
same,Nausea (second line),"7 mg/5W, N = 3",1 (33%)
same,Urine tract infection,"7 mg/5W, N = 3",0 (0%)
same,Vomiting,"7 mg/5W, N = 3",0 (0%)
same,Patients Reporting at Least One Related TEAE,"7 mg/week, N = 3",3 (100%)
same,Alanine aminotransferase increased,"9 mg/3W, N = 5",0 (0%)
same,Asthenia,"9 mg/3W, N = 5",1 (20%)
same,Asthenia (second line),"9 mg/3W, N = 5",0 (0%)
same,Catheter site inflammation,"9 mg/3W, N = 5",0 (0%)
same,Catheter site pain,"9 mg/3W, N = 5",0 (0%)
same,Decreased appetite,"9 mg/3W, N = 5",0 (0%)
same,Diarrhoea,"9 mg/3W, N = 5",1 (20%)
same,Dry skin,"9 mg/3W, N = 5",1 (20%)
same,Dysgeusia,"9 mg/3W, N = 5",0 (0%)
same,Dyspnoea,"9 mg/3W, N = 5",1 (20%)
same,Fatigue,"9 mg/3W, N = 5",0 (0%)
same,Headache,"9 mg/3W, N = 5",0 (0%)
same,Hyperbilirubinaemia,"9 mg/3W, N = 5",0 (0%)
same,Hypercholesterolaemia,"9 mg/3W, N = 5",1 (20%)
same,Hyperglycaemia,"9 mg/3W, N = 5",1 (20%)
same,Hypertransaminasaemia,"9 mg/3W, N = 5",1 (20%)
same,Hypertriglyceridaemia,"9 mg/3W, N = 5",1 (20%)
same,Hypomagnesaemia,"9 mg/3W, N = 5",1 (20%)
same,Hypotension,"9 mg/3W, N = 5",1 (20%)
same,Low fever,"9 mg/3W, N = 5",0 (0%)
same,Lymphopenia,"9 mg/3W, N = 5",1 (20%)
same,Mucosal inflammation,"9 mg/3W, N = 5",2 (40%)
same,Nausea,"9 mg/3W, N = 5",2 (40%)
same,Palmar-plantar erythrodysaesthesia syndrome,"9 mg/3W, N = 5",1 (20%)
same,Patients Reporting at Least One Related TEAE,"9 mg/3W, N = 5",4 (80%)
same,Platelet count decreased,"9 mg/3W, N = 5",0 (0%)
same,Pruritus,"9 mg/3W, N = 5",2 (40%)
same,Pyrexia,"9 mg/3W, N = 5",0 (0%)
same,Rash,"9 mg/3W, N = 5",3 (60%)
same,Rash macular,"9 mg/3W, N = 5",0 (0%)
same,Urinary tract infection,"9 mg/3W, N = 5",1 (20%)
same,Vomiting,"9 mg/3W, N = 5",2 (40%)
same,Diarrhoea,"10 mg/5W, N = 3",0 (0%)
same,Nausea (second line),"10 mg/5W, N = 3",0 (0%)
same,Rash,"10 mg/5W, N = 3",0 (0%)
same,Mucosal inflammation,"10 mg/week, N = 3",0 (0%)
same,Alanine aminotransferase increased,"12 mg/3W, N = 3",0 (0%)
same,Asthenia (second line),"12 mg/3W, N = 3",0 (0%)
same,Diarrhoea,"12 mg/3W, N = 3",0 (0%)
same,Dry skin,"12 mg/3W, N = 3",0 (0%)
same,Dyspnoea,"12 mg/3W, N = 3",0 (0%)
same,Fatigue,"12 mg/3W, N = 3",0 (0%)
same,Headache,"12 mg/3W, N = 3",0 (0%)
same,Hyperbilirubinaemia,"12 mg/3W, N = 3",0 (0%)
same,Hypercholesterolaemia,"12 mg/3W, N = 3",0 (0%)
same,Hypertransaminasaemia,"12 mg/3W, N = 3",0 (0%)
same,Hypertriglyceridaemia,"12 mg/3W, N = 3",0 (0%)
same,Hypomagnesaemia,"12 mg/3W, N = 3",0 (0%)
same,Hypotension,"12 mg/3W, N = 3",0 (0%)
same,Low fever,"12 mg/3W, N = 3",0 (0%)
same,Lymphopenia,"12 mg/3W, N = 3",0 (0%)
same,Palmar-plantar erythrodysaesthesia syndrome,"12 mg/3W, N = 3",0 (0%)
same,Platelet count decreased,"12 mg/3W, N = 3",0 (0%)
same,Pyrexia,"12 mg/3W, N = 3",0 (0%)
same,Rash,"12 mg/3W, N = 3",0 (0%)
same,Urinary tract infection,"12 mg/3W, N = 3",0 (0%)
same,Vomiting,"12 mg/3W, N = 3",0 (0%)
same,Patients Reporting at Least One Related TEAE,"15 mg/week, N = 3",3 (100%)
same,Alanine aminotransferase increased,"16 mg/3W, N = 3",0 (0%)
same,Asthenia (second line),"16 mg/3W, N = 3",1 (33%)
same,Catheter site inflammation,"16 mg/3W, N = 3",0 (0%)
same,Catheter site pain,"16 mg/3W, N = 3",0 (0%)
same,Decreased appetite,"16 mg/3W, N = 3",0 (0%)
same,Dry skin,"16 mg/3W, N = 3",0 (0%)
same,Dysgeusia,"16 mg/3W, N = 3",0 (0%)
same,Dyspnoea,"16 mg/3W, N = 3",0 (0%)
same,Hyperbilirubinaemia,"16 mg/3W, N = 3",0 (0%)
same,Hypercholesterolaemia,"16 mg/3W, N = 3",0 (0%)
same,Hypertransaminasaemia,"16 mg/3W, N = 3",0 (0%)
same,Hypertriglyceridaemia,"16 mg/3W, N = 3",0 (0%)
same,Hypomagnesaemia,"16 mg/3W, N = 3",0 (0%)
same,Hypotension,"16 mg/3W, N = 3",0 (0%)
same,Lymphopenia,"16 mg/3W, N = 3",0 (0%)
same,Nausea,"16 mg/3W, N = 3",0 (0%)
same,Palmar-plantar erythrodysaesthesia syndrome,"16 mg/3W, N = 3",0 (0%)
same,Platelet count decreased,"16 mg/3W, N = 3",0 (0%)
same,Pruritus,"16 mg/3W, N = 3",0 (0%)
same,Rash,"16 mg/3W, N = 3",0 (0%)
same,Rash macular,"16 mg/3W, N = 3",0 (0%)
same,Urinary tract infection,"16 mg/3W, N = 3",0 (0%)
same,Vomiting,"16 mg/3W, N = 3",0 (0%)
same,Dose limiting toxicity,20 mg Q3D,Mucositis
same,Nausea,"30 mg/week, N = 3",3 (100%)
same,Patients Reporting at Least One Related TEAE,"30 mg/week, N = 3",3 (100%)
same,Dose limiting toxicity,40 mg QW,Asthenia
same,Dose limiting toxicities,"40 mg QW, 20 mg QD×3d QW and 13 mg QD×5d QW cohorts",Grade (G) 3 asthenia and G3 mucositis
same,Catheter site inflammation,"Total QD Dosing, N = 25",0 (0%)
same,Catheter site pain,"Total QD Dosing, N = 25",0 (0%)
same,Diarrhea,"Total QD Dosing, N = 25",0 (0%)
same,Fatigue,"Total QD Dosing, N = 25",0 (0%)
same,Headache,"Total QD Dosing, N = 25",0 (0%)
same,Hyperbilirubinaemia,"Total QD Dosing, N = 25",0 (0%)
same,Hypertransaminasaemia,"Total QD Dosing, N = 25",0 (0%)
same,Hypertriglyceridaemia,"Total QD Dosing, N = 25",0 (0%)
same,Hypomagnesaemia,"Total QD Dosing, N = 25",0 (0%)
same,Hypotension,"Total QD Dosing, N = 25",0 (0%)
same,Low fever,"Total QD Dosing, N = 25",0 (0%)
same,Malaise,"Total QD Dosing, N = 25",0 (0%)
same,Nausea,"Total QD Dosing, N = 25",0 (0%)
same,Oral discomfort,"Total QD Dosing, N = 25",0 (0%)
same,Palmar-plantar erythrodysaesthesia syndrome,"Total QD Dosing, N = 25",0 (0%)
same,Platelet count decreased,"Total QD Dosing, N = 25",0 (0%)
same,Pyrexia,"Total QD Dosing, N = 25",0 (0%)
same,Rash,"Total QD Dosing, N = 25",0 (0%)
same,Rash macular,"Total QD Dosing, N = 25",0 (0%)
same,Urinary tract infection,"Total QD Dosing, N = 25",0 (0%)
same,Urine tract infection,"Total QD Dosing, N = 25",0 (0%)
same,Vomiting,"Total QD Dosing, N = 25",0 (0%)
same,Weakness,"Total QD Dosing, N = 25",0 (0%)
same,Asthenia (second line),"Total QDx3d QW, N = 14",1 (7%)
same,Coagulopathy,"Total QDx3d QW, N = 14",0 (0%)
same,Confusional state,"Total QDx3d QW, N = 14",0 (0%)
same,Cough,"Total QDx3d QW, N = 14",0 (0%)
same,Diarrhea,"Total QDx3d QW, N = 14",0 (0%)
same,Dizziness,"Total QDx3d QW, N = 14",0 (0%)
same,Dyspnoea exertional,"Total QDx3d QW, N = 14",0 (0%)
same,Eye infection,"Total QDx3d QW, N = 14",0 (0%)
